Test system: 317291-083-R-J1-PDC complex spheroids, viability
Test: Anticancer human tumor 317291-083-R-J1-PDC patient-derived soft tissue sarcoma cell line growth inhibition [GQUAD]
Conditions: for IC50: curve of first compound; for viability, T/C: stronger effect = lower value
In short: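 Viability of tumor cells grown as complex spheroids with endothelial and stromal cells, exposed to drug combinations. Top concentration at or near clinical Cmax (else 10 microM), diluted in half-log increments.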

[1] = second compound 0.0316 µM, first compound 0.0316 µM
[2] = second compound 0.0316 µM, first compound 0.1 µM
[3] = second compound 0.0316 µM, first compound 0.316 µM
[4] = second compound 0.0316 µM, first compound 1 µM
[5] = second compound 0.0316 µM, first compound 3.16 µM
[6] = second compound 0.0316 µM, first compound 10 µM
[7] = second compound 0.1 µM, first compound 0.0316 µM
[8] = second compound 0.1 µM, first compound 0.1 µM
[9] = second compound 0.1 µM, first compound 0.316 µM
[10] = second compound 0.1 µM, first compound 1 µM
[11] = second compound 0.1 µM, first compound 3.16 µM
[12] = second compound 0.1 µM, first compound 10 µM
[13] = second compound 0.316 µM, first compound 0.0316 µM
[14] = second compound 0.316 µM, first compound 0.1 µM
[15] = second compound 0.316 µM, first compound 0.316 µM
[16] = second compound 0.316 µM, first compound 1 µM
[17] = second compound 0.316 µM, first compound 3.16 µM
[18] = second compound 0.316 µM, first compound 10 µM
[19] = second compound 1 µM, first compound 0.0316 µM
[20] = second compound 1 µM, first compound 0.1 µM
[21] = second compound 1 µM, first compound 0.316 µM
[22] = second compound 1 µM, first compound 1 µM
[23] = second compound 1 µM, first compound 3.16 µM
[24] = second compound 1 µM, first compound 10 µM
[25] = second compound 3.16 µM, first compound 0.0316 µM
[26] = second compound 3.16 µM, first compound 0.1 µM
[27] = second compound 3.16 µM, first compound 0.316 µM
[28] = second compound 3.16 µM, first compound 1 µM
[29] = second compound 3.16 µM, first compound 3.16 µM
[30] = second compound 3.16 µM, first compound 10 µM
[31] = second compound 10 µM, first compound 0.0316 µM
[32] = second compound 10 µM, first compound 0.1 µM
[33] = second compound 10 µM, first compound 0.316 µM
[34] = second compound 10 µM, first compound 1 µM
[35] = second compound 10 µM, first compound 3.16 µM
[36] = second compound 10 µM, first compound 10 µM
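Note: spheroids exposed to compounds for one week before readout.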
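Throughout, for viability, T/C: percent viability relative to DMSO vehicle wells taken as 100%.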

`O=C(NO)c1cnc(N2CCN(S(=O)(=O)c3ccc4ccccc4c3)CC2)nc1` + Cc1[nH]c2ccc(F)cc2c1-c1nc2c3cccnc3c3ncccc3c2[nH]1 was tested, and the IC50 (second compound 0.0316 µM) was 153 nM, the IC50 (second compound 0.1 µM) was 211 nM and the IC50 (second compound 0.316 µM) was 113 nM. The IC50 (second compound 1 µM) was 60.2 nM, the IC50 (second compound 3.16 µM) was less than 31.6 nM and the IC50 (second compound 10 µM) was less than 31.6 nM. For the same compound, the viability, T/C [1] was 99.5%, the viability, T/C [2] was 71.4% and the viability, T/C [3] was 13.9%. For the same compound, the viability, T/C [4] was 0.16%, the viability, T/C [5] was 0.07% and the viability, T/C [6] was 0.9%. It also gave a viability, T/C [7] of 117%, a viability, T/C [8] of 102% and a viability, T/C [9] of 22.1%. The viability, T/C [10] was 0.09%, the viability, T/C [11] was 0.03% and the viability, T/C [12] was 0.45%. The viability, T/C [13] was 66.5%, the viability, T/C [14] was 55.2% and the viability, T/C [15] was 6.53%. It also gave a viability, T/C [16] of 0.09%, a viability, T/C [17] of 0.04% and a viability, T/C [18] of 0.16%. The viability, T/C [19] was 60.6%, the viability, T/C [20] was 41.6% and the viability, T/C [21] was 10.5%. The viability, T/C [22] was 0.06%, the viability, T/C [23] was 0.09% and the viability, T/C [24] was 0.07%. For the same compound, the viability, T/C [25] was 42.7%, the viability, T/C [26] was 19.4% and the viability, T/C [27] was 3.52%. The viability, T/C [28] was 0.44%, the viability, T/C [29] was 0.18% and the viability, T/C [30] was 0.72%. The viability, T/C [31] was 42.9%, the viability, T/C [32] was 35.3% and the viability, T/C [33] was 4.65%. It also gave a viability, T/C [34] of 0.13%, a viability, T/C [35] of 0.22% and a viability, T/C [36] of 0.17%.

For `COc1ccc([C@@H](O)c2cc(-c3ncnc4cc(N5CCOCC5)ccc34)c(F)cc2Cl)nn1` + CN(C)c1ccc(Nc2c3ccc(NC(=O)CCN4CCCC4)cc3nc3cc(NC(=O)CCN4CCCC4)ccc23)cc1, the IC50 (second compound 0.0316 µM) was 5630 nM, the IC50 (second compound 0.1 µM) was 4160 nM and the IC50 (second compound 0.316 µM) was 2040 nM. For the same compound, the IC50 (second compound 1 µM) was 114 nM, the IC50 (second compound 3.16 µM) was less than 31.6 nM and the IC50 (second compound 10 µM) was less than 31.6 nM. For the same compound, the viability, T/C [1] was 111%, the viability, T/C [2] was 108% and the viability, T/C [3] was 94%. The viability, T/C [4] was 89.4%, the viability, T/C [5] was 67.4% and the viability, T/C [6] was 33.1%. For the same compound, the viability, T/C [7] was 104%, the viability, T/C [8] was 97.5% and the viability, T/C [9] was 104%. For the same compound, the viability, T/C [10] was 82%, the viability, T/C [11] was 57% and the viability, T/C [12] was 31%. It also gave a viability, T/C [13] of 85.2%, a viability, T/C [14] of 76.3% and a viability, T/C [15] of 71.6%. For the same compound, the viability, T/C [16] was 61%, the viability, T/C [17] was 43.5% and the viability, T/C [18] was 21.9%. The viability, T/C [19] was 57.5%, the viability, T/C [20] was 42.6% and the viability, T/C [21] was 47.9%. It also gave a viability, T/C [22] of 42.5%, a viability, T/C [23] of 28.8% and a viability, T/C [24] of 12.8%. The viability, T/C [25] was 22.4%, the viability, T/C [26] was 24.1% and the viability, T/C [27] was 32.2%. The viability, T/C [28] was 15.5%, the viability, T/C [29] was 8.93% and the viability, T/C [30] was 6.58%. For the same compound, the viability, T/C [31] was 12.8%, the viability, T/C [32] was 15% and the viability, T/C [33] was 3.27%. For the same compound, the viability, T/C [34] was 5.49%, the viability, T/C [35] was 11.5% and the viability, T/C [36] was 1.01%.

Compound `Cc1[nH]c2ccccc2c1CCNCc1ccc(/C=C/C(=O)NO)cc1` + Cc1cnc(CNC(=O)c2c(=O)c3ccc(N4CCCN(C)CC4)nc3n3c2sc2ccccc23)cn1 has an IC50 (second compound 0.0316 µM) of 54.2 nM, an IC50 (second compound 0.1 µM) of 20.1 nM and an IC50 (second compound 0.316 µM) of 1.57 nM. It also gave an IC50 (second compound 1 µM) of less than 0.999 nM, an IC50 (second compound 3.16 µM) of less than 0.999 nM and an IC50 (second compound 10 µM) of less than 0.999 nM. The viability, T/C (second compound 0.0316 µM, first compound 0.000999 µM) was 101%, the viability, T/C (second compound 0.0316 µM, first compound 0.00316 µM) was 80.9% and the viability, T/C (second compound 0.0316 µM, first compound 0.00999 µM) was 103%. For the same compound, the viability, T/C [1] was 80%, the viability, T/C (second compound 0.0316 µM, first compound 0.0999 µM) was 15.5% and the viability, T/C [3] was 0.98%. For the same compound, the viability, T/C (second compound 0.1 µM, first compound 0.000999 µM) was 67.3%, the viability, T/C (second compound 0.1 µM, first compound 0.00316 µM) was 54.2% and the viability, T/C (second compound 0.1 µM, first compound 0.00999 µM) was 55.2%. It also gave a viability, T/C [7] of 46.1%, a viability, T/C (second compound 0.1 µM, first compound 0.0999 µM) of 12.2% and a viability, T/C [9] of 0.49%. For the same compound, the viability, T/C (second compound 0.316 µM, first compound 0.000999 µM) was 59%, the viability, T/C (second compound 0.316 µM, first compound 0.00316 µM) was 35.4% and the viability, T/C (second compound 0.316 µM, first compound 0.00999 µM) was 31.4%. For the same compound, the viability, T/C [13] was 25.5%, the viability, T/C (second compound 0.316 µM, first compound 0.0999 µM) was 14.5% and the viability, T/C [15] was 0.46%. It also gave a viability, T/C (second compound 1 µM, first compound 0.000999 µM) of 34.4%, a viability, T/C (second compound 1 µM, first compound 0.00316 µM) of 20.5% and a viability, T/C (second compound 1 µM, first compound 0.00999 µM) of 34.5%. It also gave a viability, T/C [19] of 26%, a viability, T/C (second compound 1 µM, first compound 0.0999 µM) of 7.38% and a viability, T/C [21] of 0.1%. For the same compound, the viability, T/C (second compound 3.16 µM, first compound 0.000999 µM) was 27.3%, the viability, T/C (second compound 3.16 µM, first compound 0.00316 µM) was 41.7% and the viability, T/C (second compound 3.16 µM, first compound 0.00999 µM) was 50%. For the same compound, the viability, T/C [25] was 0.4%, the viability, T/C (second compound 3.16 µM, first compound 0.0999 µM) was 0.16% and the viability, T/C [27] was 0.22%. For the same compound, the viability, T/C (second compound 10 µM, first compound 0.000999 µM) was 3.89%, the viability, T/C (second compound 10 µM, first compound 0.00316 µM) was 11.2% and the viability, T/C (second compound 10 µM, first compound 0.00999 µM) was 0.33%. The viability, T/C [31] was 1.81%, the viability, T/C (second compound 10 µM, first compound 0.0999 µM) was 0.47% and the viability, T/C [33] was 0.44%.

Compound `Nc1ccn(C2OC(CO)C(O)C2(F)F)c(=O)n1` (stereo not drawn) + Cc1[nH]c2ccc(F)cc2c1-c1nc2c3cccnc3c3ncccc3c2[nH]1 has an IC50 (second compound 0.0316 µM) of 44.8 nM, an IC50 (second compound 0.1 µM) of 42.8 nM and an IC50 (second compound 0.316 µM) of 32.8 nM. For the same compound, the IC50 (second compound 1 µM) was 37.1 nM, the IC50 (second compound 3.16 µM) was 35.1 nM and the IC50 (second compound 10 µM) was less than 31.6 nM. For the same compound, the viability, T/C [1] was 63%, the viability, T/C [2] was 20.3% and the viability, T/C [3] was 11.9%. The viability, T/C [4] was 11%, the viability, T/C [5] was 11.8% and the viability, T/C [6] was 8.15%. The viability, T/C [7] was 57.9%, the viability, T/C [8] was 27.4% and the viability, T/C [9] was 14.8%. It also gave a viability, T/C [10] of 12.3%, a viability, T/C [11] of 11% and a viability, T/C [12] of 9.19%. For the same compound, the viability, T/C [13] was 51.2%, the viability, T/C [14] was 16.1% and the viability, T/C [15] was 13.1%. The viability, T/C [16] was 16.2%, the viability, T/C [17] was 10.3% and the viability, T/C [18] was 8.34%. It also gave a viability, T/C [19] of 55.6%, a viability, T/C [20] of 15.8% and a viability, T/C [21] of 10.5%. It also gave a viability, T/C [22] of 9.19%, a viability, T/C [23] of 9.71% and a viability, T/C [24] of 8.18%. For the same compound, the viability, T/C [25] was 52.8%, the viability, T/C [26] was 22.5% and the viability, T/C [27] was 12%. For the same compound, the viability, T/C [28] was 12%, the viability, T/C [29] was 11.2% and the viability, T/C [30] was 10.7%. The viability, T/C [31] was 40.3%, the viability, T/C [32] was 13.2% and the viability, T/C [33] was 10.2%. It also gave a viability, T/C [34] of 8.15%, a viability, T/C [35] of 13.3% and a viability, T/C [36] of 9.1%.
